{"source": "patent KR20170021349A", "about": "“다양한 질병의 치료를 위한 jnk 신호 전달 경로의 세포 투과성 펩타이드 억제자의 새로운 용도” (자이겐 인플라메이션 리미티드, priority 2014, dated 2017)", "key": {"gerbil": {"system": "gerbil", "details": "Carboni et al. 2004; cited from earlier work"}, "[1]": {"system": "primary embryonic cultures, PC12 cells, mice", "details": "at doses inhibiting JNK activation; cited from earlier work"}, "[2]": {"system": "Sprague-Dawley albino rats", "test": "Light-induced photoreceptor damage (AMD model), ERG and ONL thickness", "type": "in vivo, rat", "details": "for a-wave recovery (% of baseline) / b-wave recovery (% of baseline): 50 mg/kg i.p. x5"}, "C57BL/6N mice": {"system": "C57BL/6N mice", "details": "Wang et al. 2004; cited from earlier work"}, "[3]": {"test": "Phase II trial, post-surgery intraocular inflammation, vs dexamethasone eye drops", "type": "in vivo, human"}, "Sprague-Dawley rats": {"system": "Sprague-Dawley rats", "test": "STZ diabetic nephropathy model, chronic administration", "type": "in vivo, rat", "details": "25 mg/kg po daily"}, "JNK": {"system": "JNK", "details": "Dickens et al. 1997; cited from earlier work"}, "TC-3 cells [4]": {"system": "TC-3 cells", "test": "Cellular import of fluorescein-labelled TAT and TAT-IB1(s) peptides", "type": "cell-based", "details": "for time to enter cells: 1 μM labelled peptide"}, "[5]": {"system": "AP-1 DNA binding complex in HeLa nuclear extracts", "test": "Gel retardation assay, AP-1 DNA binding complex after TNF-alpha", "type": "cell-based", "details": "added 30 min before TNF-alpha 5 ng/ml"}, "TC-3 cells [6]": {"system": "TC-3 cells", "test": "IL-1-induced pancreatic beta-cell apoptosis", "type": "cell-based", "details": "1 μM single addition"}}, "note": "No end group written: not given here.", "data": [{"molecule": "N#CC(c1ccnc(NCCc2cccnc2)n1)c1nc2ccccc2s1", "note": "(stereo not shown) [AS601245]", "values": [{"measurement": "protection against delayed loss of hippocampal CA1 neurons", "setting": "gerbil", "result": "현저한 보호를 제공한다"}]}, {"molecule": "CCSCc1ccc2c(c1)c1c3c(c4c5cc(CSCC)ccc5n5c4c1n2[C@H]1C[C@](O)(C(=O)OC)[C@]5(C)O1)CNC3=O", "note": "[CEP-1347]", "values": [{"measurement": "neuronal survival", "setting": "[1]", "result": "신경 생존을 촉진한다"}]}, {"molecule": "CC(C)(C)/[N+]([O-])=C/c1ccccc1", "note": "[PBN, 페닐-N-tert-부틸니트론, reference compound]", "values": [{"measurement": "a-wave recovery (% of baseline)", "setting": "[2]; day 9", "result": 70.4, "unit": "%"}, {"measurement": "b-wave recovery (% of baseline)", "setting": "[2]; day 9", "result": 100, "unit": "%"}, {"measurement": "a-wave recovery (% of baseline)", "setting": "[2]; day 16", "result": 79.6, "unit": "%"}, {"measurement": "b-wave recovery (% of baseline)", "setting": "[2]; day 16", "result": 103.6, "unit": "%"}, {"measurement": "a-wave recovery (% of baseline)", "setting": "[2]; day 23", "result": 76.2, "unit": "%"}, {"measurement": "b-wave recovery (% of baseline)", "setting": "[2]; day 23", "result": 102.4, "unit": "%"}, {"measurement": "ONL thickness loss (% vs non-induced control eyes)", "setting": "[2]; ip 50 mg/kg", "result": 16, "unit": "%"}, {"measurement": "ONL thickness", "setting": "[2]; ip 50 mg/kg, day 23, p<0.05 vs vehicle", "result": "34.05 ± 4.00", "unit": "μm"}]}, {"molecule": "Oc1c2ccccc2c2c3c(cccc13)N=N2", "note": "[SP600125]", "values": [{"measurement": "level of c-Jun phosphorylation", "setting": "C57BL/6N mice", "result": "c-Jun 인산화의 수준을 감소"}]}, {"molecule": "C[C@@H]1C[C@H]2[C@@H]3CCC4=CC(=O)C=C[C@]4(C)[C@@]3(F)[C@@H](O)C[C@]2(C)[C@@]1(O)C(=O)CO", "note": "[덱사메타손, reference compound]", "values": [{"measurement": "AEs leading to interruption of study treatment, events (%)", "setting": "[3]; eye drops", "result": "3 (5.5%)"}, {"measurement": "mild AEs, number of events (%)", "setting": "[3]; eye drops", "result": "42 (76.4%)"}, {"measurement": "moderate AEs, number of events (%)", "setting": "[3]; eye drops", "result": "9 (16.4%)"}, {"measurement": "patients with an AE within 24 h of administration", "setting": "[3]; eye drops", "result": 30, "unit": "%"}, {"measurement": "patients with intraocular pressure increased", "setting": "[3]; eye drops", "result": 14, "unit": "%"}, {"measurement": "severe AEs, number of events (%)", "setting": "[3]; eye drops", "result": "4 (7.3%)"}, {"measurement": "patients with rescue medication introduced", "setting": "[3]; eye drops 1 mg/ml 4x/day 21 d", "result": 4.0, "unit": "%"}, {"measurement": "SOC eye disorders, patients", "setting": "[3]; eye drops (16 patients)", "result": 32, "unit": "%"}, {"measurement": "premature withdrawal of study eye drops, patients (%)", "setting": "[3]; eye drops (N=50)", "result": "3 (6.0%)"}, {"measurement": "patients with an adverse event", "setting": "[3]; eye drops, 29/50", "result": 58, "unit": "%"}]}, {"molecule": "CCCCc1nc(Cl)c(CO)n1Cc1ccc(-c2ccccc2-c2nn[nH]n2)cc1", "note": "[로사르탄, 로사르탄 칼륨, reference compound]", "values": [{"measurement": "body weight vs vehicle-treated STZ rats", "setting": "Sprague-Dawley rats", "result": "현저하게 낮았다"}]}, {"molecule": "IPSPSVEEPHKHRPTTLRLTTLGAQDS [IB2-long]", "values": [{"measurement": "fold more efficient than c-Jun or ATF2 in binding JNK", "setting": "JNK", "result": "~100 배"}]}, {"molecule": "NH2-GRKKRRQRRR-COOH (H-GRKKRRQRRR-OH) [L-TAT]", "values": [{"measurement": "time to enter cells", "setting": "TC-3 cells [4]", "result": "< 5 분"}]}, {"molecule": "NH2-GRKKRRQRRRPPRPKRPTTLNLFPQVPRSQD-COOH (H-GRKKRRQRRRPPRPKRPTTLNLFPQVPRSQD-OH) [L-TAT-IB1(s)]", "values": [{"measurement": "time to enter cells", "setting": "TC-3 cells [4]", "result": "< 5 분"}, {"measurement": "formation of AP-1 DNA binding complex", "setting": "[5]", "result": "감소시켰다"}, {"measurement": "long-term protection against IL-1-induced cell death", "setting": "TC-3 cells [6]; 15 days IL-1", "result": "그렇지 않았다"}]}, {"molecule": "NH2-RRRQRRKKRG-COOH (H-RRRQRRKKRG-OH; also: D-amino acids (positions not given here)) [D-TAT]", "values": [{"measurement": "stability inside cells", "setting": "TC-3 cells [4]", "result": "극도로 안정하다"}, {"measurement": "time to enter cells", "setting": "TC-3 cells [4]", "result": "< 5 분"}]}, {"molecule": "PGTGCGDTYRPKRPTTLNLFPQVPRSQDT [IB1-long]", "values": [{"measurement": "fold more efficient than c-Jun or ATF2 in binding JNK", "setting": "JNK", "result": "~100 배"}]}, {"molecule": "TDQSRPVQPFLNLTTPRKPRYTDPPRRRQRRKKRG (also: D-amino acids (positions not given here)) [D-TAT-IB1]", "values": [{"measurement": "IL-1-induced apoptosis", "setting": "TC-3 cells [6]; 2 days IL-1, similar extent as L-TAT-IB", "result": "감소시켰다"}]}]}
